How the values were obtained:
Test in all cases: relative viability (nuclei count vs DMSO), 5 days (fraction); higher = more cells survive
Zosuquidar + Dasatinib = compound: O[C@@H](COc1cccc2ncccc12)CN1CCN([C@@H]2c3ccccc3[C@@H]3[C@H](c4ccccc42)C3(F)F)CC1 [Zosuquidar] + Cc1nc(Nc2ncc(C(=O)Nc3c(C)cccc3Cl)s2)cc(N2CCN(CCO)CC2)n1 [Dasatinib] (partner 0.075 µM)
Method in brief: (§1)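 Lung cancer cell lines in 1536-well plates were dosed by pin tool the day after seeding, either with one drug alone or with a fixed anchor-drug dose plus five library-drug doses (not always all listed) in √10 steps. After 5 days, cells were fixed and their nuclei stained in one step (final 0.05% Triton X-100, 1% formaldehyde, 1 ug/ml Hoechst), then counted on 4× images. Relative viability is the nuclei count in treated wells divided by that in vehicle wells. Values are medians of duplicate plates.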

Zosuquidar + Navitoclax = compound: O[C@@H](COc1cccc2ncccc12)CN1CCN([C@@H]2c3ccccc3[C@@H]3[C@H](c4ccccc42)C3(F)F)CC1 [Zosuquidar] + CC1(C)CCC(c2ccc(Cl)cc2)=C(CN2CCN(c3ccc(C(=O)NS(=O)(=O)c4ccc(N[C@H](CCN5CCOCC5)CSc5ccccc5)c(S(=O)(=O)C(F)(F)F)c4)cc3)CC2)C1 [Navitoclax] (partner 0.5 µM)
Method in brief: as §1

Zosuquidar + Pemetrexed = compound: O[C@@H](COc1cccc2ncccc12)CN1CCN([C@@H]2c3ccccc3[C@@H]3[C@H](c4ccccc42)C3(F)F)CC1 [Zosuquidar] + Nc1nc2[nH]cc(CCc3ccc(C(=O)N[C@@H](CCC(=O)O)C(=O)O)cc3)c2c(=O)[nH]1 [Pemetrexed] (partner 0.2 µM)
Method in brief: as §1

Zosuquidar + Foretinib = compound: O[C@@H](COc1cccc2ncccc12)CN1CCN([C@@H]2c3ccccc3[C@@H]3[C@H](c4ccccc42)C3(F)F)CC1 [Zosuquidar] + COc1cc2c(Oc3ccc(NC(=O)C4(C(=O)Nc5ccc(F)cc5)CC4)cc3F)ccnc2cc1OCCCN1CCOCC1 [Foretinib] (partner 0.25 µM)
Method in brief: as §1

Cell Line	relative viability (Zosuquidar + Dasatinib; first compound 0.01 µM)	relative viability (Zosuquidar + Dasatinib; first compound 0.03162 µM)	relative viability (Zosuquidar + Dasatinib; first compound 0.1 µM)	relative viability (Zosuquidar + Dasatinib; first compound 0.3162 µM)	relative viability (Zosuquidar + Dasatinib; first compound 1 µM)	relative viability (Zosuquidar + Navitoclax; first compound 0.01 µM)	relative viability (Zosuquidar + Navitoclax; first compound 0.03162 µM)	relative viability (Zosuquidar + Navitoclax; first compound 0.1 µM)	relative viability (Zosuquidar + Navitoclax; first compound 0.3162 µM)	relative viability (Zosuquidar + Navitoclax; first compound 1 µM)	relative viability (Zosuquidar + Pemetrexed; first compound 0.01 µM)	relative viability (Zosuquidar + Pemetrexed; first compound 0.03162 µM)	relative viability (Zosuquidar + Pemetrexed; first compound 0.1 µM)	relative viability (Zosuquidar + Pemetrexed; first compound 0.3162 µM)	relative viability (Zosuquidar + Pemetrexed; first compound 1 µM)	relative viability (Zosuquidar + Foretinib; first compound 0.01 µM)	relative viability (Zosuquidar + Foretinib; first compound 0.03162 µM)	relative viability (Zosuquidar + Foretinib; first compound 0.1 µM)	relative viability (Zosuquidar + Foretinib; first compound 0.3162 µM)	relative viability (Zosuquidar + Foretinib; first compound 1 µM)
201T	0.611	0.551	0.526	0.632	0.581	1.1	1.16	1.14	1.2	1.21	0.315	0.334	0.35	0.322	0.334	1.16	1.17	0.935	1.04	1.19
A549	–	–	–	–	–	1.16	0.892	1.16	1.23	1.24	–	–	–	–	–	0.879	0.84	0.906	0.983	0.956
A-427	0.603	0.684	0.634	0.709	0.8	1.01	0.714	0.873	1.02	0.974	1.01	0.996	0.806	1.02	0.796	1.1	0.983	0.96	1.18	1.06
ABC-1	0.625	0.592	0.575	0.766	0.532	–	–	–	–	–	–	–	–	–	–	0.926	1.03	1.17	1.32	0.95
BEN	0.31	0.281	0.299	0.314	0.258	0.523	0.0629	0.0532	0.0672	0.0608	0.75	0.738	0.476	1.05	0.684	0.724	0.55	0.592	0.61	0.524
CAL-12T	0.355	0.397	0.38	0.606	0.443	1.38	1.35	1.17	1.45	1.2	1.08	1.15	0.983	1.23	1.1	1.12	1.18	0.978	1.18	1.02
COR-L23	0.459	0.474	0.474	0.581	0.485	0.999	1.14	1.11	1.02	1.02	0.222	0.188	0.201	0.198	0.189	0.994	0.926	0.956	0.962	1.06
COR-L 105	0.353	0.334	0.341	0.358	0.279	0.944	0.638	0.725	0.968	0.631	1.27	1.01	1.18	1.1	1.16	0.865	0.888	1.29	1.04	0.899
Calu-6	–	–	–	–	–	0.88	0.81	0.895	0.86	0.813	–	–	–	–	–	0.842	0.916	1.03	0.942	0.902
ChaGo-K-1	0.615	0.583	0.602	0.737	0.624	1.14	0.971	1.28	1.09	0.964	0.266	0.255	0.263	0.266	0.26	0.905	0.994	0.873	0.909	0.943
EBC-1	–	–	–	–	–	0.451	0.417	0.466	0.493	0.417	–	–	–	–	–	0.121	0.106	0.093	0.095	0.097
EKVX	0.694	0.38	0.558	0.657	0.488	0.93	0.938	0.842	1.03	0.899	0.373	0.392	–	0.435	0.444	0.692	0.734	0.589	0.954	0.748
EMC-BAC-2	0.325	0.34	0.373	0.339	0.325	1.19	0.795	1.05	1.18	1.12	0.459	0.417	0.441	0.457	0.335	0.965	1.11	0.995	1.06	0.985
EPLC-272H	0.381	0.316	0.331	0.325	0.389	1.08	1.28	1.1	1.07	0.984	0.376	0.317	0.357	0.404	0.363	0.778	0.683	0.57	0.817	0.671
H3255	0.346	0.273	0.341	0.727	0.303	0.513	0.492	0.537	0.608	0.436	0.574	0.569	0.506	0.574	0.535	0.957	0.607	0.621	0.938	0.738
HARA	0.252	–	0.26	0.257	0.27	1.1	1.15	1.1	1.1	1.14	0.259	0.234	0.247	0.31	0.277	0.857	–	0.883	0.866	0.999
HCC-15	0.559	0.581	0.592	0.663	0.612	0.723	0.702	0.683	0.665	0.667	0.209	0.218	0.255	0.219	0.236	1.08	1.08	0.864	1.04	1.09
HCC-44	–	–	–	–	–	0.959	1.02	1.04	1.02	1.17	0.613	0.708	0.663	0.618	0.632	–	–	–	–	–

Cell Line	relative viability (Zosuquidar + Dasatinib; first compound 0.01 µM)	relative viability (Zosuquidar + Dasatinib; first compound 0.03162 µM)	relative viability (Zosuquidar + Dasatinib; first compound 0.1 µM)	relative viability (Zosuquidar + Dasatinib; first compound 0.3162 µM)	relative viability (Zosuquidar + Dasatinib; first compound 1 µM)	relative viability (Zosuquidar + Navitoclax; first compound 0.01 µM)	relative viability (Zosuquidar + Navitoclax; first compound 0.03162 µM)	relative viability (Zosuquidar + Navitoclax; first compound 0.1 µM)	relative viability (Zosuquidar + Navitoclax; first compound 0.3162 µM)	relative viability (Zosuquidar + Navitoclax; first compound 1 µM)	relative viability (Zosuquidar + Pemetrexed; first compound 0.01 µM)	relative viability (Zosuquidar + Pemetrexed; first compound 0.03162 µM)	relative viability (Zosuquidar + Pemetrexed; first compound 0.1 µM)	relative viability (Zosuquidar + Pemetrexed; first compound 0.3162 µM)	relative viability (Zosuquidar + Pemetrexed; first compound 1 µM)	relative viability (Zosuquidar + Foretinib; first compound 0.01 µM)	relative viability (Zosuquidar + Foretinib; first compound 0.03162 µM)	relative viability (Zosuquidar + Foretinib; first compound 0.1 µM)	relative viability (Zosuquidar + Foretinib; first compound 0.3162 µM)	relative viability (Zosuquidar + Foretinib; first compound 1 µM)
HCC-78	0.553	0.386	–	0.331	0.254	1.04	0.768	–	0.839	0.736	0.92	–	–	0.906	0.827	0.549	0.548	–	0.571	0.606
HCC-366	0.608	0.468	0.496	0.767	0.704	0.97	1.18	1.02	1.01	1.09	0.177	0.155	0.147	0.145	0.184	0.922	0.856	0.999	0.96	0.869
IA-LM	–	–	–	–	–	0.803	0.83	1.02	0.848	0.753	–	–	–	–	–	1.09	1.23	1.26	1.34	1.17
LCLC-103H	0.429	0.447	0.399	0.488	0.537	–	–	–	–	–	0.495	0.489	0.453	0.46	0.46	0.694	0.678	0.698	0.844	0.809
NCI-H358	0.144	0.172	0.142	0.183	0.153	–	–	–	–	–	0.189	0.173	0.173	0.167	0.154	0.654	0.615	0.719	0.598	0.702
NCI-H522	0.933	0.739	0.867	0.853	1.45	–	–	–	–	–	0.958	0.897	0.968	0.843	1.17	–	–	–	–	–
NCI-H650	0.442	0.344	0.373	0.517	0.455	–	–	–	–	–	0.764	0.757	0.834	1.18	0.921	1.03	0.984	0.908	1.15	0.939
NCI-H661	0.812	0.756	0.922	1.03	0.865	–	–	–	–	–	0.914	0.902	0.846	0.928	0.851	1.05	0.895	0.885	1.06	0.988
NCI-H727	0.373	0.387	0.424	0.429	0.355	0.426	0.528	0.328	0.454	0.391	–	–	–	–	–	0.774	0.79	0.774	0.855	0.908
NCI-H1299	–	–	–	–	–	1.06	1.02	1.03	1.01	1.04	–	–	–	–	–	1.09	1.08	1.15	1.14	1.06
NCI-H1563	0.435	0.47	0.51	0.459	0.454	–	–	–	–	–	0.623	0.786	0.679	0.729	0.743	1.04	0.9	0.967	1.1	0.932
NCI-H1623	0.499	0.634	0.487	0.607	0.498	–	–	–	–	–	–	–	–	–	–	0.868	0.832	0.821	0.933	0.803
NCI-H1648	–	–	–	–	–	–	–	–	–	–	1.57	0.99	0.568	0.717	0.627	–	–	–	–	–
NCI-H1703	–	–	–	–	–	1.39	1.36	1.44	1.33	1.05	–	–	–	–	–	0.353	0.287	0.341	0.393	0.33
NCI-H1792	0.819	0.514	–	0.927	0.757	0.603	0.621	0.53	0.635	0.359	0.746	0.705	0.474	1.04	0.933	–	–	–	–	–
NCI-H2342	0.275	0.312	0.327	0.313	0.299	–	–	–	–	–	0.682	0.785	0.649	0.899	0.818	1.1	1.18	0.878	1	1.06
SW 900	0.795	0.609	0.57	0.545	0.61	–	–	–	–	–	0.497	0.485	–	0.514	0.498	0.761	0.86	0.819	0.952	0.854
